Measurements from patent US12534496B2, “Polymorphic forms of Cyclo (-His-Pro) and methods of use to treat kidney disease” (NovMetaPharma Co., Ltd., priority 2018, dated 2026).

Columns and labels:
Format in all cases: physicochemical
[1] = Solution state chemical stability in water/acetone and EtOH/water/MtBE (HPLC purity); settings: water/acetone and EtOH/H2O/MtBE, 50 °C for 20 h
Protocol: Solution state chemical stability of the compound was studied in different solvent systems at different temperatures (Table 4). The solution was held at 50° C. and 80° C., and purity of the solution was tracked. The compound was generally stable for at least 20 hours.

[2] = Drug substance stability study, 25±2 °C/60±5% RH (appearance, assay, impurities, chiral, water content, XRPD); settings: 25° C./60% RH (table title)
Protocol: Packaging: Sample at each individual time point was packaged into double Antistatic LDPE bags both secured with cable ties. The sample packed for the same storage condition were stored together within a fiber drum, and closed with metal lid. All packages were prepared in the same fashion and labeled.
Time zero will be the day samples are placed on station. Initial testing results were from the release testing as long as samples are put on station within 30 days of the release test date, otherwise, initial was repeated.
Study Requirements: Total 22.5 g sample (Total 21 g sample if initial test is not needed): • 1.5 g for initial test if needed; • 21 g sample will be divided into 14 parts, 1.5 g for each parts, sample for each part should be weighed into double Antistatic LDPE bags both secured with cable ties. The stability samples for each storage condition are stored together within a fiber drum, closed with metal lid, and then stored at 25±2° C./60+5% RH (9 bags) and 40±2° C./75±5% RH (5 bags), respectively. Sampling Time:
Samples stored not more than 6 months were pulled on schedule date or within 2 business days after the scheduled date. Samples stored more than 6 months were pulled within +2 business days of the scheduled date.
Stability samples stored for one month to one year, and greater than one year were analyzed and completed within 10 and 20 business days after the samples pulled out from stability chamber, respectively. If time zero testing was performed, it was analyzed within 10 business days after study initiation.

[3] = Vacuum oven heating of Pattern 2 (XRPD)
Protocol: i. 80° C. Heating of Pattern 2 • Ca. 2.2 g of pattern 2 material (prepared as per Section 5.6.1) was placed inside a vacuum oven set to 50° C.; • After 1 hour, a sample was taken and analyzed by XRPD; • Vial was returned to the vacuum oven and the temperature increased to 60° C.; • After 30 minutes, a sample was taken and analyzed by XRPD; • Vial was returned to the vacuum oven and the temperature increased to 80° C.; • After 18 hours at 80° C., a sample was taken and analyzed by XRPD; ii. Fast Rotary Evaporation in Ethanol/DCM • 1 g of received CHP pattern 1 was weighed in to a round bottom flask and dissolved in 40 mL of ethanol; • Once the solid had dissolved, 2 mL of dichloromethane was pipetted into the flask; • The flask was then attached to a rotary evaporator and fast evaporated at ambient temperature under vacuum; • A pale beige solid was recovered an analyzed by XRPD. 7. pH Solubility Assessment

O=C1N[C@@H](Cc2cnc[nH]2)C(=O)N2CCC[C@@H]12 [Pattern 2, Pyrrolo [1,2-a]pyrazine-1,4-dione, hexahydro-3-(1H-imidazol-5-ylmethyl)-, hydrate (1:1), (3S, 8aS)-]
Chemical stability under both crystallization conditions [1]: stable
Appearance ([2]; 3M): Off-white powder
Assay by HPLC ([2]; 3M): 103.3%
Chiral, HPLC: chiral purity ([2]; 3M): 100.0%
Impurities, HPLC: H-His-OH ([2]; 3M): 0.08%
Impurities, HPLC: each other individual (unspecified) impurity ([2]; 3M): individual <0.05%
Water content (KF) ([2]; 3M): 7.1%
Appearance ([2]; 6M): Off-white powder
Assay by HPLC ([2]; 6M): 103.4%
Chiral, HPLC: chiral purity ([2]; 6M): 100.0%
Impurities, HPLC: H-His-OH ([2]; 6M): 0.08%
Impurities, HPLC: each other individual (unspecified) impurity ([2]; 6M): individual <0.05%
Water content (KF) ([2]; 6M): 7.2%
Appearance ([2]; Initial): Off-white powder
Assay by HPLC ([2]; Initial): 103.4%
Chiral, HPLC: chiral purity ([2]; Initial): 100.0%
Impurities, HPLC: H-His-OH ([2]; Initial): 0.07%
Impurities, HPLC: each other individual (unspecified) impurity ([2]; Initial): individual <0.05%
Water content (KF) ([2]; Initial): 7.4%
XRPD ([2]; Initial, vs reference standard of Pattern 2 (PS03027-15-H)): Conform to reference
XRPD form after heating ([3]; oven 80 °C, additional 18 hours): mixture of Pattern 1 and 2
XRPD form after heating ([3]; vacuum oven 50 °C, 1 hour): predominately Pattern 2 with some Pattern 1 peaks
XRPD form after heating ([3]; vacuum oven, further 30 minutes (1.5 hour in total)): predominantly Pattern 2 with some Pattern 1 peaks
